Reference: ChEMBL document CHEMBL1148510, “Synthesis and photocytotoxic activity of new chlorin-polyamine conjugates” (Bioorg Med Chem Lett, 2006)
The source made the active and inactive calls. No cut-off for these calls is given here.

How the values were obtained:
[1] = Partition coefficient, Log P of the compound; type: physicochemical; conditions: octanol/water
K562 [2] = test: Photocytotoxicity against human K562 cells at 2 uM; type: functional, cell-based
K562 [3] = test: Cytotoxicity against human K562 cells at 2 uM after 24 hrs in dark; type: functional, cell-based

logP [1] | SMILES | Activity (K562 [2]) | Activity (K562 [3])
-1.98 | CN(CCCCNCCCCNC(=O)c1ccc(-c2c3nc(c(-c4ccc(C(=O)NCCCCNCCCCN(C)CCCNCCCN)cc4)c4ccc([nH]4)c(-c4ccc(C(=O)NCCCCNCCCN(C)CCCCNCCCN)cc4)c4ccc([nH]4)c(-c4ccc(C(=O)NCCCCNCCCN(C)CCCCNCCCN)cc4)c4nc2CC4)C=C3)cc1)CCCNCCCN | – | –
-1.87 | CN(CCCN)CCCCNCCCCNC(=O)c1ccc(-c2c3nc(c(-c4ccc(C(=O)NCCCCNCCCCN(C)CCCN)cc4)c4ccc([nH]4)c(-c4ccc(C(=O)NCCCCNCCCN(C)CCCCN)cc4)c4ccc([nH]4)c(-c4ccc(C(=O)NCCCCNCCCN(C)CCCCN)cc4)c4nc2CC4)C=C3)cc1 | – | –
-0.83 | C=Cc1c(C)c2cc3nc(c(CC(=O)NCCCCNCCCN(C)CCCCNCCCN)c4nc(cc5[nH]c(cc1[nH]2)c(C)c5CC)C(C)=C4C(=O)NCCCCNCCCN(C)CCCCNCCCN)[C@@H](CCC(=O)NCCNCCCN(C)CCCCNCCCN)[C@@H]3C | Active | Active
-0.45 | C=Cc1c(C)c2cc3nc(c(CC(=O)NCCCCNCCCN(C)CCCCN)c4nc(cc5[nH]c(cc1[nH]2)c(C)c5CC)C(C)=C4C(=O)NCCCCNCCCN(C)CCCCN)[C@@H](CCC(=O)NCCNCCCN(C)CCCCN)[C@@H]3C | Active | Active
